For test [1], the target named is T1, hsHDAC11 (Homo sapiens, UniProt Q96DB2).
T1 sequence (Q96DB2 1-347): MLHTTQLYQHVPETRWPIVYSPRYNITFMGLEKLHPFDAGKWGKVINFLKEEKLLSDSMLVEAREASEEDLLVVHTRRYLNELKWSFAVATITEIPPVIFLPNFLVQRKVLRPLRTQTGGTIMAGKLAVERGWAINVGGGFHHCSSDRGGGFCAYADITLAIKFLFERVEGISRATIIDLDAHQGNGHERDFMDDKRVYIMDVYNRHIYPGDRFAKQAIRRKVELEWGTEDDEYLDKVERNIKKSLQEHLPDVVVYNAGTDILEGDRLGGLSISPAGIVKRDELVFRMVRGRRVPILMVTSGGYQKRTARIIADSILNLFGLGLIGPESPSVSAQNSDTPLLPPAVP
Description: HPLC deacylation assay, Abz fluorescence. The format is biochemical. Particulars: […] trifluoroacetylated peptide substrate, […] enzyme, […]°C; activator.

Test [2] deals with T1, hsHDAC11. Description: HPLC deacylation assay, Abz fluorescence. The format is biochemical. Particulars: read-out: % inhibition at 100 μM.

Molecules are shown by their SMILES.

In the case of `CCCCCCCCCCCCCC(=O)SCCNC(=O)CCNC(=O)[C@H](O)C(C)(C)COP(=O)(O)OP(=O)(O)OC[C@H]1O[C@@H](n2cnc3c(N)ncnc32)[C@H](O)[C@@H]1OP(=O)(O)O` [myristoyl-CoA], the “fold stimulation at 100 μM” value on hsHDAC11 [1] was found to be 2.5 fold.

With `CCCCCCCCCCCCCCCC(=O)SCCNC(=O)CCNC(=O)[C@H](O)C(C)(C)COP(=O)(O)OP(=O)(O)OC[C@H]1O[C@@H](n2cnc3c(N)ncnc32)[C@H](O)[C@@H]1OP(=O)(O)O` [palmitoyl-CoA], the inhibition – broadly, how much of the control response was suppressed – at 100 µM on hsHDAC11 [2] is greater than 70%.

These data come from article doi:10.1101/212043v1 (biorxiv, 2017).
